Experimental data from US5153352A, “Process for preparation of intermediates of carbocyclic nucleoside analogs” (priority 1990, dated 1992).
Values after ≈ are worked out from the molar mass of the structure shown. Read-outs that look alike come from different tables or passages of the source.

Legend:
Vero cells [1] = conditions: monkey
in vitro [2] = conditions: human, human foreskin fibroblasts, MTT Assay
in vitro [3] = conditions: monkey, vero cells, MTC (minimum drug concentration causing any cytotoxicity)
Vero cells [4] = experiment: drug cytotoxicity in Vero cells (CPE-inhibition assay); conditions: Vero
[5] = as above; conditions: monkey, vero cells
HSV-2 = experiment: plaque reduction, HSV-2 in Vero cells; format: cell-based, Herpes simplex virus type 2; conditions: Human alphaherpesvirus 2; HSV-2, Vero, plaque reduction 50%; read-out: MIC50
Procedure: After the adsorption period, the infected cell monolayers were treated in duplicate with serial dilutions of the test compound. Duplicate cell controls containing medium alone and virus controls containing medium and virus were run simultaneously with the test compound. […] Plaques visible to the unaided eye were counted and the mean number of plaques in the duplicate wells for each compound concentration tested and for the untreated, virus infected controls were determined.

[6] = compound cytotoxicity in ATH8 cells (HIV CPE inhibition assay); format: cell-based; conditions: human, read-out: MTC
Procedure: The ATH8 human T-cell line expresses high levels of the CD4 surface antigen and is quite sensitive to the cytopathogenic effect (CPE) of HIV. The cells were propagated in RPMI 1640 medium supplemented with 4mM glutamine, 15% heat-inactivated fetal bovine serum (Biocell), antibiotics (50 units of penicillin and […] of streptomycin per ml), and 50 units of recombinant-derived human interleukin-2 (ala-125; AMGen Biologicals) per ml.
ATH8 cells were used as the primary target in the HIV induced CPE inhibition assay. Cells were treated with polybrene (2 ug/ml in growth medium) for 30 minutes at 37° C., then collected by gentle centrifugation (40×g for 15 minutes at room temperature) and resuspended in clarified (8000×g for 15 minutes at 4° C.) supernate freshly harvested from 48 hours post passage H9/HTL IIIB cells. Following a 60-minute adsorption period at 37° C., the cells were dispensed into the U-bottom wells of 96-well trays (1×10^4 cells in 0.1 ml per well). […] Test compounds were evaluated at seven half-log dilutions ranging from 100 uq/ml to 0.1 uq/ml. […]
Between 7 and 10 days post infection, all wells were visually monitored for the degree of CPE inhibition as reflected by cell pellet size, and aliquots were taken from selected wells for determination of cell number and viability (based on trypan blue dye exclusion).

Row | Compound | MTC (minimum drug concentration causing any cytotoxicity) (Vero cells [1]) | viability (in vitro [2]; 3.2 ug/ml) | viability (in vitro [2]; 10 ug/ml) | viability (in vitro [2]; 32 ug/ml) | viability (in vitro [2]; 100 ug/ml) | MCC (in vitro [3]) | MTC (minimum drug concentration causing any cytotoxicity) (Vero cells [4]; HSV-2 (BW9787) TK- experiment) | MTC (minimum drug concentration causing any cytotoxicity) (Vero cells [4]; HSV-2 (MS) experiment) | MCC [5] | MCC ([5]; MTC (minimum drug concentration causing any cytotoxicity), Vero, HSV-2 (MS) experiment) | EC50 (HSV-2) | MCC [6]
1 | Nc1nc2c(ncn2C2CC(CO)C2CO)c(=O)[nH]1 (stereo not drawn) [Example 1I, 9-(2',3'-Bis(hydroxymethyl)cyclobutyl)guanine] | 320 µg/mL | 79% | 76% | 72% | 62% | 320 µg/mL | 100 µg/mL | 320 µg/mL | 100 µg/mL | 320 µg/mL | 1 µg/mL (≈ 3.77 µM) | 
2 | Nc1ncnc2c1ncn2C1CC(CO)C1CO (stereo not drawn) [Example 4C, 9-(2',3'-Bis(hydroxymethyl)cyclobutyl)adenine] |  |  |  |  |  |  |  |  |  |  |  | 3.2 µg/mL
